From patent publication US20250338846A1, “COMPOSITIONS HAVING PESTICIDAL UTILITY AND PROCESSES RELATED THERETO” (CORTEVA AGRISCIENCE, LLC, priority 2022, published 2025)

Tests used:
Type in all cases: in vivo
[1] = tested on: Cotton Aphid (Aphis gossypii, APHIGO); test: Bioassay 7: Cotton Aphid, foliar spray on infested cotton seedlings, live aphids counted three days after treatment
Procedure: where X=No. of live larvae on solvent check and Y=No. of live larvae on treated diet. In Table B6 the “Expected % Control” was calculated using the method described in Colby S. R., Weeds, 1967, 15, 20-22. Bioassay 7: Cotton Aphid (Aphis gossypii, APHIGO) (“CA”).
Stock solutions of Formula One and one or more of the active ingredients were prepared at concentrations of 1 mg/mL using a 1:1 mixture of acetone: methanol as a diluent. The stock solutions were prepared with Formula One as well as for each of the active ingredients individually. Test solutions were prepared from the stock solutions. Test solutions were prepared containing Formula One, the individual active ingredients, and mixtures of Formula One with each of the active ingredients. The test solutions for Formula One and the individual active ingredients were prepared by adding 1.5 mL of stock solution to a 30 mL glass vial, then adding 1.5 mL of 1:1 acetone: methanol solvent, followed by the addition of 27 mL water with 0.025% Tween® 20 to create a […]. Each test solution was serially diluted to create desired doses of test solutions ranging from 0.000001 to 0.0025% (w/v). The test solutions were tested against CA using the following procedure: cotton seedlings were grown in 3-inch pots with one true leaf (2-5 cm in diameter) were used as test substrate. The seedlings were infested with 20-50 CA (wingless adult and nymph stages) one day prior to chemical application. Four pots with individual seedlings were used for each treatment. A hand-held aspirator-type sprayer was used for spraying a solution to both sides of […] leaves until runoff. Reference plants (solvent check) were sprayed with the diluent only (0.025% Tween® 20 and 10% acetone:methanol (1:1) in water). Treated plants were held in a holding room for three days at approximately 25° C. and ambient relative humidity (RH about 20% to about 45%) prior to grading. Evaluation was conducted by counting the number of live aphids per plant under a microscope three days after treatment. Percent control was measured using Abbott's correction formula (W. S. Abbott, J. Econ. Entomol. 18 (1925), pp. 265-267) as follows:
(§1) where X=No. of live aphids on solvent check plants and Y=No. of live aphids on treated plants. In Table B1 the “Expected % Control” was calculated using the method described in Colby S. R., Weeds, 1967, 15, 20-22. Bioassay 8: Sweet Potato Whitefly (Bemisia tabaci, BEMITA) (“SPW”).

[2] = tested on: Sweet Potato Whitefly (Bemisia tabaci, BEMITA); test: Bioassay 8: Sweet Potato Whitefly, spray on cotton seedlings at crawler emergence, nymphs counted 7-9 days after treatment
Procedure: as §1
Stock solutions were prepared with Formula One as well as for each of the active ingredients individually. Test solutions were prepared from the stock solutions. Test solutions were prepared containing Formula One, the individual active ingredients, and mixtures of Formula One with each of the active ingredients. The test solutions for Formula One and the individual active ingredients were prepared by adding 500 μL of stock solution to a 25 mL glass vial, then adding 500 μL of acetone, followed by the addition of 9 mL water with 0.025% Tween®) 20 to create a 0.001% (w/v) solution. The test solutions containing mixtures of Formula One and the individual active ingredients were prepared by adding 500 μL of the active ingredient stock solution to a 25 mL glass vial, followed by 500 μL of the Formula One stock solution, then by the addition of 9 mL water with 0.025% Tween®) 20 to create a test solution containing 0.001% (w/v) Formula One and 0.001% (w/v) of the active ingredient. Each test solution was serially diluted to create desired doses of test solutions (0.001% (w/v), 0.0001% (w/v), 0.00001% (w/v), 0.000001% (w/v), 0.0000001% (w/v), […] and 0.00000001% (w/v)).
The test solutions were tested against SPW using the following procedure: Cotton seedlings grown in 3-inch pots, pruned so that only one true leaf remained, were used as test substrate. Adult B. tabaci were allowed to colonize the cotton plants and lay eggs for 24 hours after which all adults were removed from the plants using compressed air. Plants were monitored for egg development and, when crawler emergence was underway (>25% emergence based on visual examination using a microscope), the plants were sprayed using the test solutions and methods described above for green peach aphids (GPA). Treated plants were held in a holding room at approximately 25° C. and ambient relative humidity (RH) prior to grading. Evaluation was conducted by counting the number of developed 2-3 instar nymphs per plant under a microscope 7-9 days after treatment. Percent control was measured using Abbott's correction formula (W. S. Abbott, J. Econ. Entomol. 18 (1925), pp. 265-267) as follows:
(§2) where X=No. of live nymphs on solvent check plants and Y=No. of live nymphs on treated plants. In Table B2 the “Expected % Control” was calculated using the method described in Colby S. R., Weeds, 1967, 15, 20-22. Bioassay 9: Diamondback Moth (Plutella xylostella, PLUTMA) (DBM).

[3] = tested on: Diamondback Moth (Plutella xylostella, PLUTMA); test: Bioassay 9: Diamondback Moth, leaves of track-sprayed cabbage plants, mortality and feeding damage scored; conditions: AI alone 20 (10^-5) Wt %
Procedure: as §2
(§3) Stock solutions were prepared with Formula One as well as for each of the active ingredients individually. Test solutions were prepared from the stock solutions. Test solutions were prepared containing Formula One, the individual active ingredients, and mixtures of Formula One with each of the active ingredients. The test solution for Formula One was prepared by adding 500 μL of the stock solution to a 25 mL glass vial, then adding 500 μL of a 9:1 mixture of acetone: water. The individual active ingredients were prepared by adding 500 μL of stock solution to a 25 mL glass vial, then adding 500 μL of a 9:1 mixture of acetone: water. The test solutions containing mixtures of Formula One and the individual active ingredients were prepared by adding 500 μL of the active ingredient stock solution to a 25 mL glass vial, followed by 500 μL of the Formula One stock solution, creating a test solution containing 4000 ppm Formula One and 0.4% (w/v) of the active ingredient. Each test solution was serially diluted to create desired doses of test solutions (0.4% (w/v), 0.04% (w/v), 0.004% (w/v), 0.0004% (w/v), 0.00004% (w/v), and 0.000004% (w/v)). In test solutions containing mixtures of Formula One and the active ingredients, the active ingredients were diluted as described above, but the Concentration of Formula One was held constant (0.4% (w/v)). The highest dose test solution (0.4% (w/v)) was discarded, leaving 5 test solution concentrations used in the test.
Cabbage seedlings, grown in 3-inch pots with 2-3 small (3-5 centimeter (cm)) true leaves, were used as test substrate. Cabbage plants were sprayed with desired concentrations of Formula One and active ingredients or their mixtures using a track Sprayer. Reference plants (solvent check) were sprayed with diluent only (0.025% Tween® 20 and 10% acetone:methanol (1:1) in water). The sprayed cabbage plants were allowed to dry for 1 hour, after which leaves from each treatment were placed in a cell of a plastic tray. One leaf per cell and 8 replicates for each cell. The tested doses ranged between 0.000001% (w/v) to 0.0002% (w/v). One 2nd instar DBM larvae were placed in each cell of the tray and allowed to feed on the cabbage foliage for […] after which the mortality and feeding damage were scored. Test trays were held at approximately 26° C. and ambient relative humidity (RH) prior to grading. The number of live larvae were recorded from each cell and percent control was measured using Abbott's correction formula (W. S. Abbott, J. Econ. Entomol. 18 (1925), pp. 265-267) as follows:
where X=No. of live larvae on solvent check and Y=No. of live larvae on treated diet. In Table B6 the “Expected % Control” was calculated using the method described in Colby S. R., Weeds, 1967, 15, 20-22.

[4] = tested on: Diamondback Moth (Plutella xylostella, PLUTMA); test: as above; conditions: Feeding damage control; AI alone 40 (10^-5) Wt %
[5] = tested on: Sweet Potato Whitefly (Bemisia tabaci, BEMITA); test: Bioassay 2: Sweet Potato Whitefly, spray on cotton seedlings at crawler emergence, nymphs counted 7-9 days after treatment; conditions: AI alone 0.1 (10-5) % w/v
In short: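 Cotton seedlings pruned to one true leaf were colonized by adult B. tabaci for 24 h egg-laying, then sprayed once >25% crawler emergence was underway; solutions 0.001% to 0.00000001% (w/v) in acetone/water with 0.025% Tween 20. Held ~25° C; live 2-3 instar nymphs counted 7-9 days later, Abbott-corrected % control.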

[6] = tested on: Western Flower Thrips (Frankliniella occidentalis, FRANOC); test: Bioassay 3: Western Flower Thrips, cotton leaf disc dip, live WFT counted 3 days after treatment; conditions: Frankliniella occidentalis, foliar, 72 h; AI alone 0.0003125 % w/v
Procedure: Stock solutions of Formula One and various active ingredients were prepared initially at a concentration of 8 mg/ml for Formula One and 1 mg/mL for the active ingredients, respectively, using acetone as a diluent. Stock solutions were prepared with Formula One as well as for each of the active ingredients individually. Test solutions were prepared from the stock solutions. Test solutions were prepared containing Formula One, the individual active ingredients, and mixtures of Formula One with each of the active ingredients. The test solution for Formula One was prepared by adding 500 μL of the stock solution to a 25 mL glass vial, then adding 500 μL of acetone, followed by the addition of 9 mL water with 0.025% Tween®) 20 to create a 0.04% (w/v) solution. The test solutions of the individual active ingredients were prepared by adding 500 μL of stock solution to a 25 mL glass vial, then adding 500 μL of acetone, followed by the addition of 9 mL water with 0.025% Tween®) 20 to create a 0.005% (w/v) solution. The test solutions containing mixtures of Formula One and the individual active ingredients were prepared by adding 500 μL of the active ingredient stock solution to a 25 mL glass vial, followed by 500 μL of the Formula One stock solution, then by the addition of 9 mL water with 0.025% Tween®) 20 to create a test solution containing 0.04% (w/v) Formula One and 0.005% (w/v) of the active ingredient. Each test solution was serially diluted to create desired doses of test solutions (0.005% (w/v), 0.00125% (w/v), 0.0003125% (w/v), 0.000078% (w/v), and 0.0000195% (w/v)). In test solutions containing mixtures of Formula One and the active ingredients, the active ingredients were diluted as described above, but the Concentration of Formula One was held constant (0.04% (w/v)).
The test solutions were tested against WFT using the following procedure: Leaf discs (2.7 cm in diameter) were cut from the true leaves of cotton plants. Leaf discs were dipped into the test solutions and shaken to ensure complete coverage of the leaf disc and then placed in Millipore®) PetriSlides containing a filter paper disc. Treated leaf discs were air dried for approximately 1 hour. Each leaf disc was infested with 5 WFT (9-10-day old nymphs) by placement on each leaf disc, and the PetriSlides were capped to prevent escape. Each treatment was replicated three times and the test treatments were held at approximately 26° C. and ambient relative humidity (RH) prior to grading. Reference discs (solvent check) were treated with the diluent only. Evaluation was conducted by counting the number of live WFT under magnification 3 days after treatment. Percent control was measured using Abbott's correction formula (W. S. Abbott, J. Econ. Entomol. 18 (1925), pp. 265-267) as follows:
where X=No. of live nymphs on solvent check leaf discs and Y=No. of live nymphs on treated leaf discs. In Table B3 the “Expected % Control” was calculated using the method described in Colby S. R., Weeds, 1967, 15, 20-22. Bioassay 4: Western Tarnished Plant Bug (Lygus hesperus, LYGUHE) (“WTPB”).

[7] = tested on: Diamondback Moth (Plutella xylostella, PLUTMA); test: Bioassay 6: Diamondback Moth, artificial lepidopteran diet, live larvae after 5 days; conditions: DBM; AI alone 0.04 % w/v
Procedure: where X=No. of live nymphs on solvent check and Y=No. of live nymphs on treated bean segments. In Table B5 the “Expected % Control” was calculated using the method described in Colby S. R., Weeds, 1967, 15, 20-22. Bioassay 6: Beet Armyworm (Spodoptera exigua, LAPHEG) (BAW), and Diamondback Moth (Plutella xylostella, PLUTMA) (DBM).
as §3
The test solutions were tested against BAW and DBM using the following procedure: An artificial lepidopteran diet (Multispecies Lepidopteran Diet, Southland Products) was distributed in 128-cell bioassay trays (Frontier Agricultural Sciences™). 50 μL of test solution was pipetted into a cell in the bioassay tray. (The test solution doses of 0.04% (w/v), 0.004% (w/v), 0.0004% (w/v), 0.00004% (w/v), and 0.000004% (w/v) translated to concentrations of 5, 0.5, 0.05, 0.005, and 0.0005 ug/cm^2 on the diet, respectively.) A reference treatment (solvent check) was treated with the diluent only. […] After 5 days, the number of live larvae were recorded from each cell and percent control was measured using Abbott's correction formula (W. S. Abbott, J. Econ. Entomol. 18 (1925), pp. 265-267) as follows:
where X=No. of live larvae on solvent check and Y=No. of live larvae on treated diet. In Table B6 the “Expected % Control” was calculated using the method described in Colby S. R., Weeds, 1967, 15, 20-22. […]

## Spidoximat
[1]; AI alone 0.2 (10^-5) Wt %
  Average % Control A1: 13.25%
[1]; AI alone 7 (10^-5) Wt %
  Average % Control A1: 32.54%
[1]; AI alone 12 (10^-5) Wt %
  Average % Control A1: 35.09%
[2]; AI alone 0.1 (10^-5) Wt %
  Average % Control A1: 37.90%
[2]; AI alone 0.8 (10^-5) Wt %
  Average % Control A1: 62.26%
[3]; Acute mortality
  Average % Control AI: 0.00%
[3]; Feeding damage control
  Average % Control AI: 17.83%
[4]
  Average % Control AI: 37.98%

## CNC(=O)O/N=C(\SC)C(=O)N(C)C [Oxamyl]
[5]
  Average % Control AI: 0%
[6]
  pest or weed control at 0.0003125 % strength: 0%
[7]
  Average % Control AI: 0%
